Here are results for three compounds from patent publication EP0450936A1, “Monoclonal antibody to avermectins” (MERCK & CO. INC., priority 1990, dated 1991).

The test system of data set [1] is monoclonal antibody 3A6-1 Mab. Put plainly: competitive inhibition liquid phase RIA (monoclonal antibody specificity). It counts as binding, mouse. The conditions noted are these: 50 ng inhibitor, 500 pg 3H-Avm B1a; for % ^3H-Tritium bound: antibody amount binding about 50% of label (Mab alone: 42). On the procedure:
Specificity is determined by a competitive inhibition liquid phase RIA. The specificity is determined by contacting a known amount of labelled antigen (³H-Avm B1a) with constant amounts of other avermectins or ivermectin and then contacting this mixture with a constant amount of antibody specific for the labelled antigen. The concentration of antibody is an amount that is sufficient to bind about 50% of the labelled antigen employed in the assay.
Specificity is determined by a competitive inhibition liquid phase RIA. The specificity is determined by contacting a known amount of labelled antigen (³H-Avm B1a), 500 pg with constant amounts of other avermectins or ivermectin and then contacting this mixture with a constant amount of antibody specific for the labelled antigen. The concentration of antibody is an amount that is sufficient to bind about 50% of the labelled antigen employed in the assay.

Data set [2] is described as follows: detection of avermectin in mouse serum by competitive liquid phase RIA after intraperitoneal injection. It is filed as in vivo, BALB/c mice. To be noted: for Concentration per tube: serum at 1:10 dilution. The text has this: Monoclonal antibody specifically reactive with a common epitope or common epitopes contained within the compounds of the avermectin family and derivatives thereof are used serologically to identify and quantitate avermectins, including ivermectin, in animal body fluids and cell-free extracts. Body fluids include, but are not limited to, blood, serum, plasma, milk, urine, cerebrospinal fluid and the like. Cell-free extracts as used herein are defined as the fluids derived from disrupted cells. The avermectins can be identified and the concentration determined by a variety of immunoassays or serological assays which include, but are not limited to: immunoradiometric assays, employing labelled antibodies, Miles and Hales, Nature 219: 186 […] or a sandwich variant according to Addison and Hales, Hormone. Meta. Res. 3: 59 (1971); enzyme immunoassays, employing competitive assays with antigen-enzyme conjugates according to the method of Van Weeman and Schours, F.E.B.S. Lett. 15: 232 (1971) or enzyme-labelled antibody assays according to the procedure of Envall and Perlman, Immunochem. 8: 871 (1971) or a variant of the enzyme-labelled antibody assay which employs detection by a second antibody according to the process of Hammarstrom et al., Proc. Natl. Acad. Sci. USA 72: 1528 (1975) or non-competitive sandwich (ELISA) methods, see Nakamura et al., in Handbood of Experimental Immunology, Vol. 1, Immunochemistry, D. M. Weir, ed. 4th Edition (1986), Blackwell Scientific Publications, Oxford, pp. 27.1-27.20; or any other assay which will determine the concentration or presence of avermectin. The preferred assay is a competitive inhibition liquid phase radioimmuno assay (RIA). The avermectin concentration in animal body fluids is determined by diluting the fluid in an appropriate assay buffer. An appropriate assay buffer may include, but is not limited to, buffered saline, phosphate buffer, phosphate buffered saline, Dulbecco's phosphate buffered saline, Dulbecco's calcium-and-magnesium-free buffered saline and Tris buffer containing about 0.1 % CHAPSO with Tris-CHAPSO being preferred. The labelled antigen (³H-Avm) is diluted to a concentration of about 200 pg to about 700 pg, with about 500 pg being preferred, and contacted with an anti-avermectin monoclonal antibody at a concentration that will bind about 25% to about 75% of the labelled antigen, with about 50% being preferred. To the labelled antigen-antibody mixture is added an appropriate concentration or dilution of the unknown or sample containing avermectin or the standard containing a known amount of avermectin. The reactants are incubated at about 4° C to about 30° C, with about 25° C being preferred, for about 30 minutes to about 4 h, with about 2.5 h being preferred. All dilutions are made in the assay buffer and all determinations are made in duplicate. Non-antibody-bound radioactive avermectin is removed from the reaction mixture by chromatographic, precipitation, immunoprecipitation or adsorption techniques with adsorption of the unbound antigen onto dextran-coated activated charcoal being preferred. The dextran-coated charcoal is prepared by suspending activated charcoal, USP, at about 3% (w/v) in about 10 mM phosphate buffer, pH about 7.5, containing about 0.25% (w/v) dextran, about 60,000 to about 90,000 average mol. wt., with about 70,000 average mol. wt. being preferred. The dextran-coated activated charcoal is washed and resuspended in assay buffer and stored at a concentration of about 3%. About 1 ml of the dextran-coated activated charcoal suspension (dilution predetermined) is added to each sample and the samples are incubated for about 10 min at about 4° C. The charcoal is pelleted by centrifugation at about 3500 rpm for about 15 min. The supernatant quid is collected and the radioactivity counted in a liquid scintillation counter. […]

As a reminder, the % Inhibition is the drop in the measured response relative to a control, in per cent. Higher therefore signals a strong effect. Consider `CC[C@H](C)[C@H]1O[C@@]2(C[C@@H]3C[C@@H](C/C=C(\C)[C@@H](O[C@H]4C[C@H](OC)[C@@H](O[C@H]5C[C@H](OC)[C@@H](O)[C@H](C)O5)[C@H](C)O4)[C@@H](C)/C=C/C=C4\CO[C@@H]5[C@H](O)C(C)=C[C@@H](C(=O)O3)[C@]45O)O2)C[C@H](O)[C@@H]1C` [B2a, avermectin B2a], for which, in data set [1], the “% Inhibition” value was determined as 58% and the “% ^3H-Tritium bound” value came out at 18%.

Turning to 22, 23-dihydroavermectin B₁ [Ivm], in data set [1], the “% Inhibition” value came to 63% and the “% ^3H-Tritium bound” value was 16%.

Turning to `CCC(C)[C@H]1O[C@]2(C=C[C@@H]1C)C[C@@H]1C[C@@H](C/C=C(\C)[C@@H](O[C@H]3C[C@H](OC)[C@@H](O[C@H]4C[C@H](OC)[C@@H](O)[C@H](C)O4)[C@H](C)O3)[C@@H](C)/C=C/C=C3\CO[C@@H]4[C@H](O)C(C)=C[C@@H](C(=O)O1)[C@]34O)O2` (stereo partly drawn) [B1a, avermectin B1a], the results for the Concentration per tube in data set [2] (15 min after 10 mg per Kg IP in sesame oil), in data set [2] (30 min after 10 mg per Kg IP in sesame oil) and in data set [2] (60 min after 10 mg per Kg IP in sesame oil) were 2.4 ng, 13 ng and 42 ng, respectively. In addition, the concentration at 0.25 h in data set [2] (mouse, serum, 10 mg/kg, 15 min after 10 mg per Kg IP in sesame oil, corrected for volume (50 µl) and dilution (1:10)) stood at 480 ng/mL. The compound also registered a concentration at 0.5 h in data set [2] (mouse, serum, 10 mg/kg, 30 min after 10 mg per Kg IP in sesame oil, corrected for volume (50 µl) and dilution (1:10)) of 2600 ng/mL. In data set [2] (mouse, serum, 10 mg/kg, 60 min after 10 mg per Kg IP in sesame oil, corrected for volume (50 µl) and dilution (1:10)), the concentration at 1 h was found to be 8400 ng/mL. Further, the “% Inhibition” value in data set [1] is on record as 53%. Moreover, in data set [1], the “% ^3H-Tritium bound” value turned out to be 20%.
